Assays:
Assay type in all cases: in vivo
[1] = system: rice (Oryza sativa); experiment: Test B flooded paddy test, rice; conditions: Flood, 250 g ai/ha, applied to paddy water, 2-leaf stage, visual evaluation after 13 to 15 d
Summary of the method: (§1)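 2-leaf seedlings; pots flooded 3 cm above soil; compound added straight to paddy water; depth maintained. Greenhouse 13–15 d. Visual rating vs controls, 0–100 scale (0 = no effect, 100 = complete control).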

[2] = system: kochia (Kochia scoparia); experiment: Test A postemergence, kochia; conditions: 0 to 100 scale; for Plant response rating, Kochia: 0 no effect, 100 complete control
Summary of the method: (§2)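 Greenhouse test; plants at one- to two-leaf stage (2–10 cm) sprayed postemergence with compound in non-phytotoxic solvent/surfactant mix, or soil sprayed preemergence after seeding in loam–sand blend. Injury rated visually versus untreated controls after about 10 d, 0 (no effect) to 100 (complete control).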

[3] = system: foxtail, giant (Setaria faberii); experiment: Test A preemergence, giant foxtail; conditions: 0 to 100 scale, 0 is no effect, 100 is complete control
Summary of the method: as §2

[4] = system: pigweed (Amaranthus retroflexus); experiment: Test A postemergence, pigweed; conditions: 0 to 100 scale; for Plant response rating, Pigweed: 0 no effect, 100 complete control
Summary of the method: as §2

[5] = system: kochia (Kochia scoparia); experiment: Test A preemergence, kochia; conditions: 0 to 100 scale, 0 is no effect, 100 is complete control
Summary of the method: as §2

[6] = system: ragweed (common ragweed, Ambrosia elatior); experiment: Test A postemergence, ragweed; conditions: 0 to 100 scale; for Plant response rating, Ragweed: 0 no effect, 100 complete control
Summary of the method: as §2

[7] = system: barnyardgrass (Echinochloa crus-galli); experiment: Test B flooded paddy test, barnyardgrass; conditions: Flood, 250 g ai/ha, applied to paddy water, 2-leaf stage, visual evaluation after 13 to 15 d
Summary of the method: as §1

[8] = system: pigweed (Amaranthus retroflexus); experiment: Test A preemergence, pigweed; conditions: 0 to 100 scale, 0 is no effect, 100 is complete control
Summary of the method: as §2

[9] = system: foxtail, giant (Setaria faberii); experiment: Test A postemergence, giant foxtail; conditions: 0 to 100 scale; for Plant response rating, Foxtail, Giant: 0 no effect, 100 complete control
Summary of the method: as §2

[10] = system: corn (Zea mays); experiment: Test A postemergence, corn; conditions: 0 to 100 scale; for Plant response rating, Corn: 0 no effect, 100 complete control
Summary of the method: as §2

[11] = system: ducksalad (Heteranthera limosa); experiment: Test B flooded paddy test, ducksalad; conditions: Flood, 250 g ai/ha, applied to paddy water, 2-leaf stage, visual evaluation after 13 to 15 d
Summary of the method: as §1

[12] = system: ragweed (common ragweed, Ambrosia elatior); experiment: Test A preemergence, ragweed; conditions: 0 to 100 scale, 0 is no effect, 100 is complete control
Summary of the method: as §2

[13] = system: blackgrass (Alopecurus myosuroides); experiment: Test A postemergence, blackgrass; conditions: 0 to 100 scale; for Plant response rating, Blackgrass: 0 no effect, 100 complete control
Summary of the method: as §2

[14] = system: sedge, umbrella (small-flower umbrella sedge, Cyperus difformis); experiment: Test B flooded paddy test, umbrella sedge; conditions: Flood, 250 g ai/ha, applied to paddy water, 2-leaf stage, visual evaluation after 13 to 15 d
Summary of the method: as §1

[15] = system: ryegrass, Italian (Lolium multiflorum); experiment: Test A postemergence, Italian ryegrass; conditions: 0 to 100 scale; for Plant response rating, Ryegrass, Italian: 0 no effect, 100 complete control
Summary of the method: as §2

[16] = system: barnyardgrass (Echinochloa crus-galli); experiment: Test A preemergence, barnyardgrass; conditions: 0 to 100 scale, 0 is no effect, 100 is complete control
Summary of the method: as §2

[17] = system: ryegrass, Italian (Lolium multiflorum); experiment: Test A preemergence, Italian ryegrass; conditions: 0 to 100 scale, 0 is no effect, 100 is complete control
Summary of the method: as §2

[18] = system: barnyardgrass (Echinochloa crus-galli); experiment: Test A postemergence, barnyardgrass; conditions: 0 to 100 scale; for Plant response rating, Barnyardgrass: 0 no effect, 100 complete control
Summary of the method: as §2

[19] = system: galium (catchweed bedstraw, Galium aparine); experiment: Test A postemergence, galium; conditions: 0 to 100 scale; for Plant response rating, Galium: 0 no effect, 100 complete control
Summary of the method: as §2

[20] = system: wheat (Triticum aestivum); experiment: Test A postemergence, wheat; conditions: 0 to 100 scale; for Plant response rating, Wheat: 0 no effect, 100 complete control
Summary of the method: as §2

[21] = 500 g ai/ha, 0 is no effect, 100 is complete control

| Structure (SMILES) | Plant response rating, Rice (0 to 100 scale, 0 is no effect, 100 is complete control) [1] | Plant response rating, Kochia ([2]; 125 g ai/ha) | Foxtail, Giant plant response rating ([3]; 125 g ai/ha) | Foxtail, Giant plant response rating ([3]; 500 g ai/ha) | Plant response rating, Pigweed ([4]; 125 g ai/ha) | Kochia plant response rating ([5]; 125 g ai/ha) | Kochia plant response rating ([5]; 500 g ai/ha) | Plant response rating, Ragweed ([6]; 125 g ai/ha) | Plant response rating, Barnyardgrass (0 to 100 scale, 0 is no effect, 100 is complete control) [7] | Pigweed plant response rating ([8]; 125 g ai/ha) | Pigweed plant response rating ([8]; 500 g ai/ha) | Plant response rating, Foxtail, Giant ([9]; 125 g ai/ha) | Plant response rating, Corn ([10]; 125 g ai/ha) | Plant response rating, Ducksalad (0 to 100 scale, 0 is no effect, 100 is complete control) [11] | Ragweed plant response rating ([12]; 125 g ai/ha) | Ragweed plant response rating ([12]; 500 g ai/ha) | Plant response rating, Blackgrass ([13]; 125 g ai/ha) | Plant response rating, Sedge, Umbrella (0 to 100 scale, 0 is no effect, 100 is complete control) [14] | Plant response rating, Ryegrass, Italian ([15]; 125 g ai/ha) | Barnyardgrass plant response rating ([16]; 125 g ai/ha) | further results |
| --- | --- | --- | --- | --- | --- | --- | --- | --- | --- | --- | --- | --- | --- | --- | --- | --- | --- | --- | --- | --- | --- |
| CC(C)[C@@H](Nc1ncc(C(F)(F)F)c(N)n1)c1cc2ccccc2s1 [Compound 50] | 0 | 20 | 0 | 10 | 60 | 40 | 60 | 0 | 0 | 0 | 40 | 0 | 0 | 0 | 0 | 0 | 0 | 0 | 30 | 0 | Kochia plant response rating [2, 21]: 60; Pigweed plant response rating [4, 21]: 90; Ragweed plant response rating [6, 21]: 30; Foxtail, Giant plant response rating [9, 21]: 40; Corn plant response rating [10, 21]: 10; Blackgrass plant response rating [13, 21]: 0; Ryegrass, Italian plant response rating [15, 21]: 0; Barnyardgrass plant response rating ([16]; 500 g ai/ha): 10; Ryegrass, Italian plant response rating ([17]; 125 g ai/ha): 0; Ryegrass, Italian plant response rating ([17]; 500 g ai/ha): 0; Plant response rating, Barnyardgrass ([18]; 125 g ai/ha): 0; Barnyardgrass plant response rating [18, 21]: 0; Plant response rating, Galium ([19]; 125 g ai/ha): 10; Galium plant response rating [19, 21]: 20; Plant response rating, Wheat ([20]; 125 g ai/ha): 0; Wheat plant response rating [20, 21]: 0 |
| C[C@@H](Nc1ncc(C(F)(F)F)c(N)n1)c1coc2cc(Cl)ccc12 [Compound 55] | 0 | 70 | 50 | 90 | 100 | 40 | 90 | 50 | 30 | 80 | 100 | 20 | 10 | 70 | 100 | 100 | 0 | 98 | 30 | 80 | Plant response rating, Kochia ([2]; 500 g ai/ha): 90; Plant response rating, Pigweed ([4]; 500 g ai/ha): 100; Plant response rating, Ragweed ([6]; 500 g ai/ha): 80; Plant response rating, Foxtail, Giant ([9]; 500 g ai/ha): 90; Plant response rating, Corn ([10]; 500 g ai/ha): 0; Plant response rating, Blackgrass ([13]; 500 g ai/ha): 20; Plant response rating, Ryegrass, Italian ([15]; 500 g ai/ha): 30; Barnyardgrass plant response rating ([16]; 500 g ai/ha): 80; Ryegrass, Italian plant response rating ([17]; 125 g ai/ha): 20; Ryegrass, Italian plant response rating ([17]; 500 g ai/ha): 70; Plant response rating, Barnyardgrass ([18]; 125 g ai/ha): 30; Plant response rating, Barnyardgrass ([18]; 500 g ai/ha): 70; Plant response rating, Galium ([19]; 125 g ai/ha): 70; Plant response rating, Galium ([19]; 500 g ai/ha): 90; Plant response rating, Wheat ([20]; 125 g ai/ha): 0; Plant response rating, Wheat ([20]; 500 g ai/ha): 0 |
| C[C@H](Nc1ncc(C(F)(F)F)c(N)n1)c1coc2ccc(F)cc12 [Compound 56] | 0 | 0 | 0 | 0 | 20 | 0 | 0 | 0 | 0 | 0 | 30 | 10 | 0 | 0 | 20 | 80 | 0 | 0 | 0 | 70 | Plant response rating, Kochia ([2]; 500 g ai/ha): 40; Plant response rating, Pigweed ([4]; 500 g ai/ha): 60; Plant response rating, Ragweed ([6]; 500 g ai/ha): 30; Plant response rating, Foxtail, Giant ([9]; 500 g ai/ha): 20; Plant response rating, Corn ([10]; 500 g ai/ha): 10; Plant response rating, Blackgrass ([13]; 500 g ai/ha): 0; Plant response rating, Ryegrass, Italian ([15]; 500 g ai/ha): 0; Barnyardgrass plant response rating ([16]; 500 g ai/ha): 70; Ryegrass, Italian plant response rating ([17]; 125 g ai/ha): 0; Ryegrass, Italian plant response rating ([17]; 500 g ai/ha): 0; Plant response rating, Barnyardgrass ([18]; 125 g ai/ha): 50; Plant response rating, Barnyardgrass ([18]; 500 g ai/ha): 30; Plant response rating, Galium ([19]; 125 g ai/ha): 0; Plant response rating, Galium ([19]; 500 g ai/ha): 0; Plant response rating, Wheat ([20]; 125 g ai/ha): 0; Plant response rating, Wheat ([20]; 500 g ai/ha): 0 |
| CC(=O)c1cnc(NC(C)c2cc3ccccc3s2)nc1N (stereo not drawn) [Compound 57] | 0 | 0 | 30 | 90 | 60 | 0 | 60 | 40 | 0 | 30 | 100 | 0 | 0 | 30 | 60 | 100 | 0 | 80 | 0 | 0 | Plant response rating, Kochia ([2]; 500 g ai/ha): 60; Plant response rating, Pigweed ([4]; 500 g ai/ha): 80; Plant response rating, Ragweed ([6]; 500 g ai/ha): 70; Plant response rating, Foxtail, Giant ([9]; 500 g ai/ha): 50; Plant response rating, Corn ([10]; 500 g ai/ha): 20; Plant response rating, Blackgrass ([13]; 500 g ai/ha): 10; Plant response rating, Ryegrass, Italian ([15]; 500 g ai/ha): 60; Barnyardgrass plant response rating ([16]; 500 g ai/ha): 70; Ryegrass, Italian plant response rating ([17]; 125 g ai/ha): 20; Ryegrass, Italian plant response rating ([17]; 500 g ai/ha): 50; Plant response rating, Barnyardgrass ([18]; 125 g ai/ha): 0; Plant response rating, Barnyardgrass ([18]; 500 g ai/ha): 70; Plant response rating, Galium ([19]; 125 g ai/ha): 60; Plant response rating, Galium ([19]; 500 g ai/ha): 80; Plant response rating, Wheat ([20]; 125 g ai/ha): 0; Plant response rating, Wheat ([20]; 500 g ai/ha): 20 |

— patent US20220119354A1, “DIAMINO-SUBSTITUTED PYRIDINES AND PYRIMIDINES AS HERBICIDES” (FMC Corporation, priority 2019, published 2022)
